# In patent publication US20080306096A1, “Quinazoline Derivatives, Process for Their Preparation and Their Use as Anti-Cancer Agents” (ASTRAZENECA AB, priority 2005, published 2008):
# Biological target: T1, human recombinant, purified wild type His-B-Raf protein kinase (Homo sapiens, UniProt P15056)
# T1 construct: His
# Test: B-Raf In Vitro ELISA Assay
# Assay type: biochemical
# Details: phosphorylation of MEK1; 2.5 nM B-Raf, 0.15 μM MEK1, 10 μM ATP; 1 hour preincubation at 25° C.
# Method: B-Raf In Vitro ELISA Assay
# Activity of human recombinant, purified wild type His-B-Raf protein kinase was determined in vitro using an enzyme-linked immunosorbent assay (ELISA) assay format, which measures phosphorylation of the B-Raf substrate, human recombinant, purified His-derived (detagged) MEK1. The reaction utilized 2.5 nM B-Raf, 0.15 μM MEK1 and 10 μM adenosine triphosphate (ATP) in 40 mM N-(2-hydroxyethyl)piperazine-N′-(2-ethanesulfonic acid hemisodium salt (HEPES), 5 mM 1,4-dithio-DL-threitol (DTT), 10 mM MgCl2, 1 mM ethylenediaminetetraacetic acid (EDTA) and 0.2 M NaCl (1×HEPES buffer), with or without compound at various concentrations, in a total reaction volume of 25 μl in 384 well plates. B-Raf and compound were preincubated in 1×HEPES buffer for 1 hour at 25° C. Reactions were initiated with addition of MEK1 and ATP in 1×HEPES buffer and incubated at 25° C. for 50 minutes and reactions stopped by addition of 10 μl 175 mM EDTA (final concentration 50 mM) in 1×HEPES buffer. 5 μl of the assay mix was then diluted 1:20 into 50 mM EDTA in 1×HEPES buffer, transferred to 384 well black high protein binding plates and incubated overnight at 4° C. Plates were washed in tris buffered saline containing 0.1% 5 Tween20 (TBST), blocked with 50 μl Superblock (Pierce) for 1 hour at 25° C., washed in TBST, incubated with 50 μl rabbit polyclonal anti-phospho-MEK antibody (Cell Signaling) diluted 1:1000 in TBS for 2 hours at 25° C., washed with TBST, incubated with 50 μl goat anti-rabbit horseradish peroxidase-linked antibody (Cell Signaling) diluted 1:2000 in TBS for 1 hour at 25° C. and washed with TBST. 50 μl of fluorogenic peroxidase substrate (Quantablu 10-Pierce) was added and following incubation for 45-60 minutes, 50 μl QuantabluSTOP (Pierce) was added. Blue fluorescent product was detected at excitation 325 and emission 420 using a TECAN Ultra plate reader. Data was graphed and IC50s calculated using Excel Fit (Microsoft).
# T1 sequence (P15056 whole entry): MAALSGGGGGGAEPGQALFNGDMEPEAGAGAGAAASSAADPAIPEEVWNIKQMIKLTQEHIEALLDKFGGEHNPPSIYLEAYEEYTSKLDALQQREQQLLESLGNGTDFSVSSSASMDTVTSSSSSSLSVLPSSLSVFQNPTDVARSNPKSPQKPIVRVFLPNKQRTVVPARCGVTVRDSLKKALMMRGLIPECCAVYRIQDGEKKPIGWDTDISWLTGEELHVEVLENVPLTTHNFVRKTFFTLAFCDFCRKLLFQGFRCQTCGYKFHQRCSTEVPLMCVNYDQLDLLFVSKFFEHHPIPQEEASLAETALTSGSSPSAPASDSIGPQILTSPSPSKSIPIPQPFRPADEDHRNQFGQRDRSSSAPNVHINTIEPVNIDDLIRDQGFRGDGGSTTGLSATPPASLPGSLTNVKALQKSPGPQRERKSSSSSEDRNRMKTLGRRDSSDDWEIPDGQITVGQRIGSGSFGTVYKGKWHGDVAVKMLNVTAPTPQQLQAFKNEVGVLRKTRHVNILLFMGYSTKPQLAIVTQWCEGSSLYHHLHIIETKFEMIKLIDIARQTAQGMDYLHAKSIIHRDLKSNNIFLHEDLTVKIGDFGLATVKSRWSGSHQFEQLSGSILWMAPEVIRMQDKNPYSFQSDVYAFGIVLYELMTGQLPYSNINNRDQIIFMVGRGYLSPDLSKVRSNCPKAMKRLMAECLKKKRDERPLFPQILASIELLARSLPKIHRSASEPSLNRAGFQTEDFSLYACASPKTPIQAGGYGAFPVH
row,IC50 [nM],SMILES
1,370,"COc1cc2ncnc(Nc3cc(NC(=O)c4cc(C(F)(F)F)ccc4F)ccc3C)c2cc1OC [Example 15, N-{3-[(6,7-Dimethoxyquinazolin-4-yl)amino]-4-methylphenyl}-2-fluoro-5-(trifluoromethyl)benzamide]"
2,193,"COc1cc2ncnc(Nc3cc(NC(=O)c4cccc(C5(C#N)CCC5)c4)ccc3C)c2cc1OC [Example 7, 3-(1-Cyanocyclobutyl)-N-{3-[(6,7-dimethoxyquinazolin-4-yl)amino]-4-methylphenyl}benzamide]"
3,1100,"COc1cc2c(Nc3cc(NC(=O)c4cccc(C(C)(C)C#N)c4)ccc3C)ncnc2cc1OCc1ccccc1 [Example 5, N-(3-{[7-(Benzyloxy)-6-methoxyquinazolin-4-yl]amino}-4-methylphenyl)-3-(1-cyano-1-methylethyl)benzamide]"
